The target of data set [1] is T1, AvBPPS (AvTPS3) (Wurfbainia villosa, UniProt A0A2Z4K4Q8).
T1 construct: gene TPS3; predicted 25-residue N-terminal transit peptide removed (full ORF 596 aa); E. coli Rosetta (DE3); Ni column
T1 sequence (A0A2Z4K4Q8 26-596): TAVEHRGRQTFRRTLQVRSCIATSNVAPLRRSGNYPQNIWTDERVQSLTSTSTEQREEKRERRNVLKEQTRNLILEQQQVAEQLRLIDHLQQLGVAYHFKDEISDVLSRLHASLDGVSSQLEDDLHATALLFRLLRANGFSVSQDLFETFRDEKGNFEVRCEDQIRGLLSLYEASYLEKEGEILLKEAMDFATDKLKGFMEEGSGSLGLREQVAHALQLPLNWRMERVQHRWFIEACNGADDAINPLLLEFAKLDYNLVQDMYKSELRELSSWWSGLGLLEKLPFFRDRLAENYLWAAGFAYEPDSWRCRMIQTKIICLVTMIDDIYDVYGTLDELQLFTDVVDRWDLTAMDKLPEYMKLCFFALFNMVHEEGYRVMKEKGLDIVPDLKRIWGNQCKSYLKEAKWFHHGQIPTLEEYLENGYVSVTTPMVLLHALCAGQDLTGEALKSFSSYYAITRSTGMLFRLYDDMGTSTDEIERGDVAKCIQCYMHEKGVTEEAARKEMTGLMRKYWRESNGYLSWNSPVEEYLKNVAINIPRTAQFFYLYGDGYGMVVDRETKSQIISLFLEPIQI
The data set can be described thus: GC-MS product analysis. In kind it is biochemical. The settings on record: 25 mM HEPES pH 7.0, 5 mM MgCl2, 5 mM DTT, 30 °C, 2 h.

Data set [2] addresses T1, AvBPPS (AvTPS3). The experiment in a line: GC-MS of borneol after alkaline phosphatase dephosphorylation. Format: biochemical. The settings on record: from GPP; 25 mM HEPES pH 7.0, 5 mM MgCl2, 5 mM DTT, 30 °C, 1 h, then alkaline phosphatase 37 °C.
Substrate in data set [3]: CC(C)=CCC/C(C)=C/COP(=O)(O)OP(=O)(O)O
The data set can be described thus: GC-MS product assay, kinetic analysis. The settings on record: Mg2+ present. In kind it is biochemical, Wurfbainia villosa.

Take `CC(C)=CCC/C(C)=C/COP(=O)(O)OP(=O)(O)O` [GPP]: the GC-MS product analysis result at AvBPPS (AvTPS3) [1] is “AvTPS3 was found to catalyze GPP to produce three monoterpene compounds”. Take `CC1(C)C2CCC1(C)C(OP(=O)(O)OP(=O)(O)O)C2` (stereo not drawn) [bornyl diphosphate]: the “GC-MS of borneol after alkaline phosphatase dephosphorylation” value at AvBPPS (AvTPS3) [2] is recorded as “we identified AvTPS3 as bornyl diphosphate synthase (AvBPPS) according to its most abundant product”.

B1: AvPS (AvTPS1) (Wurfbainia villosa) (protein)
chain: AAEESQSLSSTTSRRSGNYQPSIWTHDRIQSLTLSHAAADEEDHAEEIKLLKYQTSKLMEEKKGRVEEQLQLIDHLQQLGVAYHFKDEIKDTLRGFHASFEDVSLQLRDNLHASALLFRLLRENGFSVSEDIFKKFKDEKAGQFEDRLQSQAEGLLSLYEASYLEKDGEELLHEAREFTTKHLKNLLEEEGSLKPGLIREQVAHALELPLNWRFQRLHTKWFIGAWQRDPAMDPALLGLAKLDFNALQNIYKRELKEASRWWTDLGLPQKLPFFRDRLTENYLWTVGWAFEPDSWAFRELQTKINCFITLIDDVYDVYGTLDELELFTDIMERWDVNSIDKLPEYMKICFLAVFNTVNDAGYEVIRDKGVDIIPYLKRAWAELCKMYMREARWYHAGYTPTLDEYLDGAWISISGALILSTAYCMGNDLTKDDLDKFSTYPAVMHPSCMLLRLHDDFGTSTDELARGDVQKAVQCCMHERKVPEAVAREHIMQVMEAKWRLLNGNRVATSSFEEYFLNVAINIPRSAQFFYGQGDGYGKSDGETKKQVISLLIEPVQF
notes: predicted 42-residue N-terminal transit peptide removed (full ORF 600 aa); E. coli Rosetta (DE3); Ni column
One may read the Km as the substrate concentration at which the rate is half of its maximum. With B1, the Michaelis-Menten constant (Km) in data set [3] was found to be 1.99 µM.

Source of the values: publication PMC6020762, “An Integrative Volatile Terpenoid Profiling and Transcriptomics Analysis for Gene Mining and Functional Characterization of AvBPPS and AvPS Involved in the Monoterpenoid Biosynthesis in Amomum villosum” (Frontiers in Plant Science, 2018).
